Assay results reported in patent US12441763B2, “Hangtaimycin derivatives and their preparation methods and application” (WUHAN UNIVERSITY, priority 2022, dated 2025).
Numbered stars: 1 amine (or outer) side, 2 acyl side, 3 side chain; on linkers, the order of the positions; unused ones are H or OH. Square brackets hold non-standard residues; d marks the D form. Peptide text beside a SMILES is read from it. * marks the point of attachment. X3 = O=C1C=C(CCC/C=C/C=C/C(=O)[*:2])CC(C(O)N[*:1])O1; X4 = O=C1C=C(CCC/C=C/C=C/C(=O)[*:2])CC(CN[*:1])O1; NMeW = CN[CH](Cc1c[nH]c2ccccc12)C(=O)O; X2 = C/C(=C\C(C)N[*:1])C(=O)[*:2]; Dhb = C/C=C(\N)C(=O)O; X1 = C/C=C/C=C\C(=O)*; Dha = C=C(N)C(=O)O

Tests used:
[1] = tested on: HepG2 cells; assay: Cellular assay for hepatoprotective activity, CCl4-induced liver injury cell model; format: cell-based; settings: compared with the CCl4 group; HepG2 cell homogenates
Protocol: HepG2 cells were seeded into 24-well plates and kept at 37° C. in 5% CO2 in order to achieve 80% fusion. To evaluate the effects of HTMA, HTMB, and HTMP on aspartate aminotransferase (AST) and alanine aminotransferase (ALT) activity, and compare the results with those of Silymarin (positive control) (FIG. 26), a cellular assay for hepatoprotective activity was carried out using a CCl4-induced liver injury cell model. The cells were treated with the compounds followed by ultrasound disruption and cell homogenization to prepare the cell homogenates for analysis.

[2] = tested on: carrageenan-induced paw inflammation; assay: Anti-inflammatory effect in inflammatory model induced by carrageenan (paw); format: in vivo, Kunming mice; settings: 10 mg/mL; for right hind foot thickness: 10 μL subcutaneous into right hind paw, 4 hours after carrageenan injection, vs carrageenan+solvent group
Protocol: Male Kunming mice weighing 18˜22 g were adaptively reared for 1 day, and then randomly divided into […] (5˜6 mice per group): the saline+solvent group, the saline+HTM group, the saline+HTMP group, the saline+HTMA group, the saline+HTMB group, the saline+rapamycin (250 nM) group, the carrageenan+solvent group, the carrageenan+HTM group, the carrageenan+HTMP group, the carrageenan+HTMA group, the carrageenan+HTMB group, and the carrageenan+rapamycin (250 nM) group. Where doses used for HTM, HTMP, HTMA, and HTMB were set at 1, 3, and 10 mg/mL, and their solutions all contained 5% DMSO. Experiments were designed based on previous studies (Zhang et al., 2018). Carrageenan was used to induce paw inflammation, and the experimental procedure was as follows:
(1) The thickness of the right hind foot of mice was measured with a vernier caliper before the experiment, and the measurement site was marked.
(2) The experimental group was then subcutaneously injected into the right hind paw with 10 μL of different concentrations of compound solutions. The control group was injected with 10 μL saline into the right hind paw.
(3) After administration, the carrageenan group was injected subcutaneously with 30 μL of 1% carrageenan solution into the right hind paw, and the other groups were injected with an equal volume of saline. The thickness of the right hind foot of each mouse was measured at the same site every 1 hour for the following 4 hours to observe the effect of the compounds on the change in foot thickness.

[3] = tested on: acute inflammatory visceral pain caused by acetic acid; assay: Writhing test (acetic acid); format: in vivo, Balb/c mice; settings: 30 minutes before 0.6% acetic acid i.p., counted within 20 minutes, vs solvent group, P<0.05
Protocol: The writhing test: Male Balb/c mice weighting 18˜22 g were randomly divided into four groups (9˜10 per group): the vehicle group (DMSO:saline=1:4, 1 ml/kg), the HTMB (1 mg/kg) group, the HTMB (3 mg/kg) group, and the HTMB (10 mg/kg) group. After tail vein administration for 30 minutes, mice were injected intraperitoneally with 10 mL/kg of freshly prepared 0.6% acetic acid (Rediet Tesfaye, et al. 2020), and the number of body twists of mice was observed and recorded within 20 minutes.

[4] = tested on: morphine-induced CPP; assay: Conditioned place preference (CPP) experiments; format: in vivo, SD rats; settings: HTMB 3 mg/kg + morphine vs saline + morphine; test on the 10th day; P<0.05
Protocol: Conditioned place preference (CPP) experiments: Morphine, an opioid representative, and cocaine, a euphoric representative, were used to establish a model of addiction. On the first day, the baseline was assessed by placing the rats in the center compartment of the CPP apparatus and allowing ad libitum access to all compartments for 15 minutes. And then, male SD rats were divided into the saline+morphine group, the HTMB (3 mg/kg)+morphine group, the saline+cocaine group, and the HTMB (3 mg/kg, i.p.)+cocaine group. The rats were exposed to CPP training from day 2 to 9. On the 10th day, the channel between the three boxes was opened, and the rats were allowed to move freely in the three boxes for 15 minutes for the CPP test.

[5] = Antioxidant activity, DPPH free radical scavenging; format: biochemical; settings: 1~50 μg/mL, 0.1 mM DPPH, absorbance at 517 nm
Protocol: In this experiment, a 0.1 mM DPPH solution was prepared with ethanol, and each sample solution/dispersion was separately mixed with the DPPH solution in order to dilute it into a reaction product with a concentration gradient of 1˜50 μg/mL to evaluate the concentration-dependent antioxidant potential. The reaction product was measured for its absorbance (AS) at 517 nm using an ultraviolet-visible spectrophotometer, and its antioxidant activity was measured using DPPH removal as an indicator. The percentage of DPPH free radical scavenging is calculated by the following formula: […]
AS is the absorbance of the sample and A0 is the absorbance of the control (only DPPH solution).

[6] = tested on: bladder cancer; assay: Antitumor activity, MTT cell viability, bladder cancer; format: cell-based; settings: 50 μg/mL, 24 hours, P<0.01
Protocol: (§1) In a 96-well microplate, 100 μL of culture medium was put in each well and inoculate four cell strains with a fusion degree of 80% at a density of 8×10^3 cells. Cells were grown at 37° C., CO2 (5%) and air (95%). Each 96-well plate was placed with a concentration gradient of 0˜100 μg/mL of test compounds HTM, HTMA, HTMB, and HTMP. After 24 hours of incubation, the medium was removed, and 0.5 mg/mL MTT solution was added to each medium with cells and continue to incubate the cells for 4 hours at 37° C. Then 100 μL of DMSO was added to dissolve formazan crystals. Finally, absorbance was measured at 570 nm using a microplate reader (Bioteck EON, USA). The viability of the cells was calculated as the percentage of cell viability compared to vehicle control-treated cells, which were arbitrarily assigned as 100% viability. Each independent experiment was repeated five times. (*P<0.05, **P<0.01, ***P<0.001)

[7] = tested on: renal cancer; assay: Antitumor activity, MTT cell viability, renal cancer; format: cell-based; settings: […], 24 hours, P<0.01
Protocol: as §1

[8] = tested on: breast cancer; assay: Antitumor activity, MTT cell viability, breast cancer; format: cell-based; settings: 50 μg/mL, 24 hours
Protocol: as §1

[9] = tested on: alpha-naphthyl isothiocyanate-induced liver injury; assay: Animal assay for hepatoprotective activity, alpha-naphthyl isothiocyanate-induced liver injury; format: in vivo, Wistar rats
Protocol: Male Wistar rats weighing around 220 g were randomly divided into 7 groups with 12 rats in each group. After grouping, they were fed a standard diet under standard conditions and were orally gavaged continuously. The dosages of the positive control groups obeticholic acid and silymarin were 10 mg/kg and 5 mg/kg respectively. The HTMA group was divided into low, medium, and high-dose groups with doses of 2.5, 5, and 10 mg/kg. The control and model groups were orally gavaged with 0.5% sodium carboxymethyl cellulose (solvent) daily. After 7 days of gavage, the rats fasted for 12 hours. On the 8th day, their weight was measured, and all rats except for the control group were intraperitoneally injected with alpha-naphthyl isothiocyanate (50 mg/kg, dissolved in olive oil) to induce liver injury. The rats in the control group were intraperitoneally injected with the same amount of olive oil. After two more days of gavage and 12 hours of fasting, blood samples were taken to detect biochemical indicators reflecting the degree of liver cell damage (FIGS. 27A˜27C) and bile stasis (FIGS. 28A˜28E), and liver immunohistochemical detection was performed (FIGS. 29A, 29B and 30A˜30F).

[10] = tested on: HepG2 cells; assay: Protection of the cell membrane of HepG2 after CCl4 injury (DiO/DAPI confocal imaging); format: cell-based; settings: HTMA pre-treatment 12 hours, then 70% CCl4 injury fluid 1 hour; vs model group
Protocol: Well-growing HepG2 cells were plated into confocal dishes with 1 mL of cell suspension containing 5×10^5 cells per dish. After 24 hours of incubation, pre-treat the cells with HTMA for 12 hours. The culture medium was removed from the confocal dish, then phenol red-free DMEM medium was added to the control group, 70% CCl4 injury fluid was added to the model and treatment groups. The dishes were placed in a 37° C. incubator for 1 hour to induce liver injury. After modeling, the culture medium was removed, the cells were rinsed with PBS, and fixed with 4% paraformaldehyde at room temperature for 10 minutes. Then the cells were rinsed with PBS three times, each time for 5 minutes. 10 μM DiO was added to the dish and stained the cells at room temperature for 30 minutes. Then the cells were rinsed with PBS three times, each time for 5 minutes. DAPI was dropped to counterstain the cell nucleus, incubating it in the dark for 30 minutes, and then the cells were rinsed with PBS three times. The images of the cells were captured using a laser scanning confocal microscope (Leica TCS SP8). The experimental design includes two positive controls: silymarin(S) and obeticholic acid (OBC).

[11] = tested on: morphine reward memory reconsolidation; assay: Drug reward memory reconsolidation, morphine; format: in vivo, SD rats; settings: 3 mg/kg i.p. after exposure to drug-paired box; group II vs group I; 7th day after reward memory activation; P<0.05
Protocol: (§2) Drug reward memory reconsolidation: Morphine, an opioid representative, and cocaine, a euphoric representative, were used to establish model addiction. On the first day, baseline was assessed by placing the rats in the center compartment of the CPP apparatus and allowing ad libitum access to all compartments for 15 minutes. And then, male SD rats were divided into the saline+morphine group, the HTMB (3 mg/kg)+morphine group, the saline+cocaine group, and the HTMB (3 mg/kg, i.p.)+cocaine group. The rats were exposed to CPP training from day 2 to 9. On the 10th day, the channel between the three boxes was opened, and the rats were allowed to move freely in the three boxes for 15 minutes for the CPP test. On the 11th day, the CPP expressing rats screened for CPP formation were divided into four groups: the group I (morphine+saline), the group II (morphine+3 mg/kg HTMB), the group III (cocaine+saline), and the group IV (cocaine+3 mg/kg HTMB). After exposure to drug-paired box for 10 minutes, groups I and III were injected with saline (1 ml/kg, i.p.), and the groups II and IV were injected with HTMB (3 mg/kg, i.p.). 24 hours after injection, we defined this as 1 day of activation of the reward memory. The CPP scores were measured on the 7th day after reward memory activation.

[12] = tested on: cocaine reward memory reconsolidation; assay: Drug reward memory reconsolidation, cocaine; format: in vivo, SD rats; settings: 3 mg/kg i.p. after exposure to drug-paired box; group IV vs group III; 7th day after reward memory activation; P<0.05
Protocol: as §2

[13] = high-dose HTMA (HH) 10 mg/kg, oral gavage, vs liver injury model group, blood

C=C(NC(=O)/C=C/C=C/CCCC1=CC(=O)OC(CNC(=O)/C(C)=C/C(C)NC(=O)/C=C\C=C\C)C1)C(=O)NC(C(=O)N/C(=C\C)C(=O)N(C)C(Cc1c[nH]c2ccccc12)C(=O)OC)C(C)OC (stereo not shown) [HTMB, Hangtaimycin B] (X1-[X2][X4][Dha]T(Me)[Dhb][NMeW]-OMe; configuration not given here)
ALT levels [1]: significantly reduced | AST levels [1]: significantly reduced | improvement of the inflammation caused by carrageenan, comparison among HTMP, HTMA and HTMB [2]: best results | right hind foot thickness ([2]; P<0.05): reduced | number of leukocytes per unit area (HE staining) ([2]; carrageenan+HTMB group vs carrageenan+solvent group, P<0.05): statistical difference | number of body twists ([3]; 3 mg/kg tail vein): significantly lower | number of body twists ([3]; 10 mg/kg tail vein): significantly lower | CPP scores, morphine-induced CPP [4]: inhibit | antioxidant capacity (DPPH free radical scavenging) [5]: have antioxidant capacity | survival rate of bladder cancer [6]: significantly inhibited | survival rate of renal cancer [7]: significantly inhibited | survival rate of breast cancer ([8]; P<0.05): significantly inhibited

C=C(NC(=O)/C=C/C=C/CCCC1=CC(=O)OC(C(O)NC(=O)/C(C)=C/C(C)NC(=O)/C=C\C=C\C)C1)C(=O)NC(C(=O)N/C(=C\C)C(=O)N(C)C(Cc1c[nH]c2ccccc12)C(=O)OC)C(C)OC (stereo not shown) [HTMA, Hangtaimycin A] (X1-[X2][X3][Dha]T(Me)[Dhb][NMeW]-OMe; configuration not given here)
ALT levels [1]: significantly reduced | AST levels [1]: significantly reduced | effects on other biochemical indicators relative to high-dose HTMA ([9]; 2.5 mg/kg oral gavage (HTMA low dose LH)): weaker | LDH levels ([9]; 2.5 mg/kg oral gavage (HTMA low dose LH), vs liver injury model group): significantly reduced | effects on other biochemical indicators relative to high-dose HTMA ([9]; 5 mg/kg oral gavage (HTMA medium dose MH; silymarin)): weaker | LDH levels ([9]; 5 mg/kg oral gavage (HTMA medium dose MH; silymarin), vs liver injury model group): significantly reduced | levels of LDH ([9]; 10 mg/kg oral gavage (HTMA high dose HH; obeticholic acid), vs liver injury model group): significantly reduce | pathological conditions of liver tissue damage (liver tissue staining) ([9]; all doses of HTMA (2.5, 5, 10 mg/kg oral gavage), vs liver injury model group): therapeutic effect | levels of ALP [9, 13]: significantly reduce | levels of ALT [9, 13]: significantly reduce | levels of AST [9, 13]: significantly reduce | levels of GGT [9, 13]: significantly reduce | levels of TBA [9, 13]: significantly reduce | levels of TBIL [9, 13]: significantly reduce | cell membrane morphology (DiO fluorescence) [10]: protective effect on the cell membrane | right hind foot thickness ([2]; P<0.05): reduced | antioxidant capacity (DPPH free radical scavenging) [5]: does not | survival rate of bladder cancer [6]: significantly inhibited | survival rate of breast cancer ([8]; P<0.01): significantly inhibited

C=C(NC(=O)/C=C\C=C\CCCC1=CC(=O)OC(C(O)NC(=O)C(C)=CC(C)NC(=O)/C=C\C=C\C)C1)C(=O)NC(C(=O)N1C(=O)[C@@H](Cc2c[nH]c3ccccc23)N(C)C(=O)/C1=C/C)C(C)OC (stereo partly shown) [HTM, Hangtaimycin]
CPP scores, morphine reward memory reconsolidation [11]: inhibit | CPP scores, cocaine reward memory reconsolidation [12]: inhibit | antioxidant capacity (DPPH free radical scavenging) [5]: have antioxidant capacity | survival rate of bladder cancer [6]: significantly inhibited | survival rate of renal cancer [7]: significantly inhibited | survival rate of breast cancer ([8]; P<0.05): significantly inhibited
